Test results reported in ChEMBL document CHEMBL5154636, “Discovery of STAT3 and Histone Deacetylase (HDAC) Dual-Pathway Inhibitors for the Treatment of Solid Cancer” (J Med Chem, 2021).

System: HCT-116
Assay: Cytotoxicity against human HCT-116 cells assessed as reduction in cell viability incubated for 48 hrs by MTT assay
Assay type: functional, cell-based
Conditions: HCT-116, 48 h

SMILES: COc1cc(/C=C/c2ccc(OCCCCCCC(=O)NO)cc2)cc(OC)c1
- IC50: 1.07 µM
